Results taken from patent publication US7625889B2, “Substituted bis aryl and heteroaryl compounds as selective 5HT2A antagonists” (Aventis Pharmaceuticals Inc., priority 2005, dated 2009).
Counter-ions that a name gives are not always drawn.

These compounds were tested against T1, human 5HT2A receptor (Homo sapiens, UniProt P28223) (assay: Receptor Binding Assay, 5HT2A ([3H]N-methyl spiperone)). Conditions: BHK cells expressing human 5HT2A receptor, 2.5 nM [3H]N-methyl spiperone, 37° C.
T1 construct: expressed in transfected cells
T1 sequence (P28223 whole entry): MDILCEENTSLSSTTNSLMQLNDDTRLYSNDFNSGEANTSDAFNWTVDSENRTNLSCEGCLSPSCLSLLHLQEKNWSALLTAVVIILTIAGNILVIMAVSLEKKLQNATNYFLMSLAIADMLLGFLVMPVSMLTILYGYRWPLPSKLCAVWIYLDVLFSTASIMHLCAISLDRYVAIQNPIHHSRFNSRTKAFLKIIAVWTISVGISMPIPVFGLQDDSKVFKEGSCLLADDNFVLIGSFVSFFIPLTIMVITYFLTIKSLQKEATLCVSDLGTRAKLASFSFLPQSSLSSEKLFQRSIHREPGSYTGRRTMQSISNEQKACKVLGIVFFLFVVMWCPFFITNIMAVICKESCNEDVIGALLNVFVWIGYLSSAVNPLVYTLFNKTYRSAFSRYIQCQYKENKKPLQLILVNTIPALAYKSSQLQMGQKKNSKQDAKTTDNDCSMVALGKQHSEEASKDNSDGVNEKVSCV
Procedure: Cell Culture: BHK cells stably expressing the human 5HT2A receptor were maintained in Dulbecco's Modified Eagle's Medium supplemented with […] Geneticin, 1% Sodium Pyruvate, 1% Pen-Strep and 10% Fetal Calf Serum, and treated with 5 mM sodium butyrate for 24 h to increase receptor expression before harvesting. Cells were harvested by mechanical scraping, washed with Phosphate Buffered Saline, and stored at −80° C. in 10% DMSO in 1 mg/mil aliquots until used. Protein determination was made according to Lowry.
Receptor Binding Assays: The 5HT2A and D2L assays were conducted at 37° C. in a Tris buffer containing salts (50 mM Tris Buffer, pH 7.7; 120 mM NaCl; 5 mM KCl; 2 mM CaCl2; 1 mM MgCl2). Cell membranes (previously prepared and frozen) were rapidly thawed. Membranes were diluted to an appropriate concentration (to produce 100 μg protein/assay point for 5HT2A, and 58 μg protein/assay point for D2L) in Tris buffer and homogenized. Assays were conducted on 96-well plates, using 2.5 and 1 nM [^3H]N-methyl spiperone as radioligand for 5HT2A and D2L assays, respectively. Plates were incubated at 37° C. in a shaking water bath for 30 and 60 min, for 5HT2A and D2L, respectively. Nonspecific binding was defined using 100 μM methylsergide and eticlopride, for 5HT2A and D2L, respectively.
Assays were terminated by rapid filtration through Millipore MAFB or MAFC (5HT2C) filter plates (presoaked in 50 mM Tris HCl, pH 7.7, with 0.1% Brij) using a Millipore Cell Harvester. The filter plates were then washed with ice-cold 50 mM Tris buffer, pH 7.7, and allowed to dry overnight. 50 μl of Microscint scintillation cocktail were added and the plates were counted in a Packard Topcount scintillation counter.
IC50 and Ki calculations were performed using nonlinear regression one-site competition analysis (GraphPad, Prism), with top and bottom limits held constant at 0% and 100% inhibition, respectively. The percent inhibition at each drug concentration was the average of duplicate determinations. Except where indicated, each determination was performed 2 to 5 times.
Work on `CN(C)CCN(Cc1ccccc1)Cc1cccc(-c2ccc3[nH]ccc3c2)c1` [Example 1, N-Benzyl-N-[3-(1H-indol-5-yl)-benzyl]-N′,N′-dimethyl-ethane-1,2-diamine] yielded a Ki of 10.8 nM. Compound `CN(C)CCN(Cc1ccccc1)Cc1cccc(-c2ccc3[nH]c(=O)sc3c2)c1` [Example 2] has a Ki of 2.4 nM. For `CN(C)CCN(Cc1ccccc1)Cc1cccc(-c2ccc3[nH]c(=O)n(C)c(=O)c3c2)c1` [Example 4], the Ki was 33.5 nM. `CN(C)CCN(Cc1ccccc1)Cc1cccc(-c2ccc3[nH]c(=O)[nH]c3c2)c1` [Example 5] was tested, and the Ki was 218 nM. `CN(C)CCN(Cc1ccccc1)Cc1cccc(-c2ccc3[nH]ncc3c2)c1` [Example 6] was tested, and the Ki was 2.7 nM. Compound `CN(C)CCN(Cc1ccccc1)Cc1cccc(-c2cnc3c(c2)OCC(=O)N3)c1` [Example 7] has a Ki of 210 nM. For `CN1CCN(Cc2cccc(-c3ccc4[nH]c(=O)oc4c3)c2)CC1` [Example 8], the Ki was 35.4 nM. With `CN1CCN(Cc2cccc(-c3ccc4[nH]nnc4c3)c2)CC1` [Example 9] the Ki was 227 nM. In the case of `CN1CCN(Cc2cc(-c3ccc4[nH]ccc4c3)ccc2F)C(c2cccnc2)C1` (centres unmarked) [Example 10], the Ki is reported as 13.8 nM. With `CN1CCN(Cc2cc(-c3ccc4[nH]c(=O)oc4c3)co2)[C@H](c2ccc(F)cc2)C1` [Example 11] the Ki was 16.2 nM. For `CN1CCN(Cc2cc(-c3ccc4[nH]ccc4c3)ccc2F)C(c2ccccn2)C1` (centres unmarked) [Example 13], the Ki was 3.3 nM. Compound `CN1CCN(Cc2ccc(-c3ccc4[nH]c(=O)oc4c3)o2)[C@@H](c2ccc(F)cc2)C1` [Example 14] has a Ki of 1.4 nM. In the case of `CN1CCN(Cc2cc(-c3ccc4[nH]ccc4c3)ccc2F)C(c2ccc(C(F)(F)F)cc2)C1` (centres unmarked) [Example 15], the Ki is reported as 13.8 nM. Work on `CN(C)CCCN(Cc1ccccc1)Cc1cccc(-c2ccc3[nH]nnc3c2)c1` [Example 17, N-[3-(1H-Benzotriazol-5-yl)-benzyl]-N-benzyl-N′,N′-dimethyl-propane-1,3-diamine] yielded a Ki of 7.2 nM. Compound `CN(C)CCN(Cc1ccccc1)Cc1cccc(-c2ccc3[nH]cnc3c2)c1` [Example 18] has a Ki of 74.8 nM. `CN(C)CCCN(Cc1ccccc1)Cc1cccc(-c2ccc3[nH]cnc3c2)c1` [Example 19] was tested, and the Ki was 76.5 nM. `CN(C)CCN(Cc1cccc(-c2ccc3[nH]c(=O)oc3c2)c1)C(=O)c1ccccc1` [Example 24] gave a Ki of 0.56 nM. `CCN1CCCC1CN(Cc1cc(-c2ccc3[nH]c(=O)oc3c2)ccc1F)C(=O)c1ccc(F)cc1` (centres unmarked) [Example 25] showed a Ki of 0.6 nM. Work on `CN1CCC(N(Cc2cccc(-c3ccc4[nH]ccc4c3)c2)C(=O)c2cccs2)CC1` [Example 28] yielded a Ki of 0.7 nM. For `CN1CCC(N(Cc2cc(-c3ccc4[nH]ccc4c3)ccc2F)C(=O)c2cccs2)CC1` [Example 29], the Ki was 0.7 nM. In the case of `CN(C)CCN(Cc1cccc(-c2ccc3[nH]c(=O)oc3c2)c1)C(=O)c1ccc(Cl)cc1` [Example 30], the Ki is reported as 0.77 nM. Compound `CCN1CCC[C@@H]1CN(Cc1cc(-c2ccc3[nH]c(=O)oc3c2)ccc1F)C(=O)c1ccc(F)cc1` [Example 31] has a Ki of 0.92 nM. `CN(C)CCN(Cc1cccc(-c2ccc3[nH]c(=O)sc3c2)c1)C(=O)c1ccccc1` [Example 32] showed a Ki of 1.1 nM. Work on `CN(C)CCN(Cc1cc(-c2ccc3[nH]ccc3c2)ccc1F)C(=O)c1cccs1` [Example 33] yielded a Ki of 1.19 nM. `CN(C)CCN(Cc1cc(-c2ccc3[nH]cc(C#N)c3c2)ccc1F)C(=O)c1ccc(F)cc1` [Example 35] showed a Ki of 2.8 nM. In the case of `CN(C)CCCN(Cc1cccc(-c2ccc3[nH]c(=O)sc3c2)c1)C(=O)c1ccccc1` [Example 36], the Ki is reported as 4.1 nM. Compound `CN(C)CCN(Cc1cccc(-c2ccc3[nH]c(=O)sc3c2)c1)C(=O)c1ccc(Cl)cc1` [Example 37] has a Ki of 4.1 nM. `O=C(c1ccc(F)cc1)N(Cc1cc(-c2ccc3[nH]ccc3c2)ccc1F)CC12CCN(CC1)CC2` [Example 38] was tested, and the Ki was 14.4 nM. Work on `O=C(c1ccc(F)cc1)N(CCN1CCCC1)Cc1cncc(-c2ccc3[nH]ccc3c2)c1` [Example 39] yielded a Ki of 1.1 nM. `CN1CCC(N(Cc2ccc(F)c(-c3ccc4[nH]ccc4c3)c2)C(=O)c2ccc(F)cc2)CC1` [Example 40] gave a Ki of 0.58 nM. In the case of `O=c1[nH]c2ccc(-c3ccc(F)c(CN4CCNCC4c4cccs4)c3)cc2o1` (centres unmarked) [Example 43], the Ki is reported as 0.6 nM. With `Fc1ccc([C@H]2CNCCN2Cc2cc(-c3ccc4[nH]nnc4c3)ccc2F)cc1` [Example 45] the Ki was 0.99 nM. `CN(C)CCN(Cc1ccc(F)cc1)Cc1cncc(-c2ccc3[nH]c(=O)oc3c2)c1` [Example 48] was tested, and the Ki was 0.6 nM. In the case of `CN(C)CCN(Cc1ccc(F)cc1)Cc1cncc(-c2ccc3[nH]ncc3c2)c1` [Example 49], the Ki is reported as 0.4 nM. Compound `CN(C)CCN(Cc1ccc(F)cc1)Cc1cc(-c2ccc3[nH]c(=O)oc3c2)co1` [Example 50] has a Ki of 2.5 nM. Work on `N#Cc1c[nH]c2ccc(-c3ccc(F)c(CN4CCNC[C@@H]4c4ccc(F)cc4)c3)cc12` [Example 51] yielded a Ki of 9.2 nM. In the case of `CN1CCN(Cc2cc(-c3ccc4[nH]ccc4n3)ccc2F)[C@@H](c2ccc(F)cc2)C1` [Example 52], the Ki is reported as 3.1 nM. `CCN1CCC[C@H]1CN(Cc1cc(-c2ccc3[nH]nnc3c2)ccc1F)C(=O)c1ccc(F)cc1` [Example 53, N-[5-(1H-Benzotriazol-5-yl)-2-fluoro-benzyl]-N-(1-ethyl-pyrrolidin-2S-ylmethyl)-4-fluoro-benzamide] was tested, and the Ki was 2.13 nM. With `O=C(c1ccc(F)cc1)N(CCN1CCCC1)Cc1cccc(-c2ccc3[nH]nnc3c2)c1` [Example 54] the Ki was 0.9 nM. In the case of `O=C(c1ccc(F)cc1)N(CCN1CCCC1)Cc1cc(-c2ccc3[nH]ncc3c2)ccc1F` [Example 55], the Ki is reported as 0.31 nM. In the case of `O=C(c1cccs1)N(CCN1CCCC1)Cc1cc(-c2ccc3[nH]nnc3c2)ccc1F` [Example 56], the Ki is reported as 6.51 nM. `O=C(c1ccc(F)cc1F)N(CCN1CCCC1)Cc1cc(-c2ccc3[nH]nnc3c2)ccc1F` [Example 57] gave a Ki of 0.71 nM. `CN1C2CCC1CC(N(Cc1cc(-c3ccc4[nH]ncc4c3)ccc1F)C(=O)c1ccc(F)cc1)C2` (centres unmarked) [Example 58] showed a Ki of 1.23 nM. `CN1CCC(N(Cc2cc(-c3ccc4[nH]c(=O)oc4c3)ccc2F)C(=O)c2ccc(F)cc2)CC1` [Example 59] gave a Ki of 0.89 nM. In the case of `CN(C)CCN(Cc1cc(-c2ccc3c(c2)CCN3)ccc1F)C(=O)c1ccc(F)cc1` [Example 60], the Ki is reported as 1.13 nM. For `CN1CCCC(N(Cc2cc(-c3ccc4[nH]ncc4c3)ccc2F)C(=O)c2ccc(F)cc2)C1` (centres unmarked) [Example 61], the Ki was 0.7 nM. With `CN1CC[C@@H](N(Cc2cc(-c3ccc4[nH]ncc4c3)ccc2F)C(=O)c2ccc(F)cc2)C1` [Example 62] the Ki was 0.75 nM. Work on `CN1CC[C@H](N(Cc2cc(-c3ccc4[nH]ncc4c3)ccc2F)C(=O)c2ccc(F)cc2)C1` [Example 63] yielded a Ki of 0.58 nM. `CN1CCCC(N(Cc2cc(-c3ccc4[nH]ncc4c3)ccc2F)C(=O)c2ccc(F)cc2)C1` (centres unmarked) [Example 64] was tested, and the Ki was 0.6 nM. `CN1[C@@H]2CC[C@H]1C[C@H](N(Cc1cc(-c3ccc4[nH]ncc4c3)ccc1F)C(=O)c1ccc(F)cc1)C2` [Example 65] gave a Ki of 0.9 nM. In the case of `O=C(c1ccc(F)cc1)N(Cc1cc(-c2ccc3[nH]nnc3c2)ccc1F)C1CCNCC1` [Example 66], the Ki is reported as 0.67 nM. For `CC(C)N1CCC(N(Cc2cc(-c3ccc4[nH]nnc4c3)ccc2F)C(=O)c2ccc(F)cc2)CC1` [Example 67, N-[5-(1H-Benzotriazol-5-yl)-2-fluoro-benzyl]-4-fluoro-N-(1-isopropyl-piperidin-4-yl)-benzamide], the Ki was 2.16 nM. Compound `O=C(c1ccc(F)cc1)N(Cc1cc(-c2ccc3[nH]nnc3c2)ccc1F)C1CCN(C2CC2)CC1` [Example 68, N-[5-(1H-Benzotriazol-5-yl)-2-fluoro-benzyl]-N-(1-cyclopropyl-piperidin-4-yl)-4-fluoro-benzamide] has a Ki of 3.14 nM. Work on `CN1CCC(N(Cc2cc(-c3ccc4[nH]nnc4c3)ccc2F)C(=O)c2ccc(F)cc2)CC1` [Example 69, N-[5-(1H-Benzotriazol-5-yl)-2-fluoro-benzyl]-N-(1-methyl-piperidin-4-yl)-4-fluoro-benzamide] yielded a Ki of 1.35 nM. In the case of `CN1CCC(N(Cc2ccc(F)cc2)Cc2cc(-c3ccc4[nH]ccc4c3)ccc2F)CC1` [Example 70, (4-Fluoro-benzyl)-[2-fluoro-5-(1H-indol-5-yl)-benzyl]-(1-methyl-piperidin-4-yl)-amine], the Ki is reported as 0.72 nM. Work on `CN(C)CCN(Cc1ccc(F)cc1)Cc1cc(-c2ccc3[nH]ccc3c2)ccc1F` [Example 72] yielded a Ki of 2.37 nM. `CN(C)CCN(Cc1cncc(-c2ccc3[nH]ccc3c2)c1)C(=O)c1ccc(F)cc1` [Example 74, N-(2-Dimethylamino-ethyl)-4-fluoro-N-[5-(1H-indol-5-yl)-pyridin-3-ylmethyl]-benzamide trifluoroacetate] was tested, and the Ki was 1.05 nM. `O=C(c1ccc(F)cc1)N(CCN1CCCC1)Cc1ccc(-c2ccc3[nH]ccc3c2)s1` [Example 75] was tested, and the Ki was 2.14 nM. With `CN1CCC(N(Cc2cc(-c3ccc4[nH]ccc4c3)co2)C(=O)c2ccc(F)cc2)CC1` [Example 76] the Ki was 4.74 nM.
